Measurements taken from ChEMBL document CHEMBL1201862, “PubChem BioAssay data set” (2004).
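These data come from cells grown in 96-well plates and exposed to compound for 48 hours at five concentrations. Abbreviation: GI50, concentration required for 50% inhibition of growth.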 Activity calls are given as the source filed them. Cut-off read from the data, not from the text of the source: active = GI50 up to about 1.1 µM and inactive = higher.

How the values were obtained:
Assay in all cases: NCI anticancer screen, dose series, 48 h
K562 = system: K562
CCRF-CEM = system: CCRF-CEM
SNB-19 = system: SNB-19
SK-MEL-5 = system: SK-MEL-5
RPMI-8226 = system: RPMI-8226
HOP-62 = system: HOP-62
SNB-75 = system: SNB-75
UACC-257 = system: UACC-257
HCT-116 = system: HCT-116
SK-MEL-2 = system: SK-MEL-2
OVCAR-5 = system: OVCAR-5
OVCAR-3 = system: OVCAR-3
Malme-3M = system: Malme-3M
UACC-62 = system: UACC-62
SF-268 = system: SF-268
M14 = system: M14
OVCAR-4 = system: OVCAR-4
TK-10 = system: TK-10
HOP-92 = system: HOP-92

Compound | GI50 (K562) | GI50 (CCRF-CEM) | GI50 (SNB-19) | GI50 (SK-MEL-5) | GI50 (RPMI-8226) | GI50 (HOP-62) | GI50 (SNB-75) | GI50 (UACC-257) | GI50 (HCT-116) | GI50 (SK-MEL-2) | GI50 (OVCAR-5) | GI50 (OVCAR-3) | GI50 (Malme-3M) | GI50 (UACC-62) | GI50 (SF-268) | GI50 (M14) | GI50 (OVCAR-4) | GI50 (TK-10) | GI50 (HOP-92)
COc1ccc(C(=O)C(CO)Oc2ccccc2OC)cc1OC (stereo not drawn) | > 100 µM (inactive) | > 100 µM (inactive) | > 100 µM (inactive) | > 100 µM (inactive) | > 100 µM (inactive) | > 100 µM (inactive) | > 100 µM (inactive) | > 100 µM (inactive) | > 100 µM (inactive) | > 100 µM (inactive) | > 100 µM (inactive) | > 100 µM (inactive) | > 100 µM (inactive) | > 100 µM (inactive) | > 100 µM (inactive) | > 100 µM (inactive) | > 100 µM (inactive) | > 100 µM (inactive) | –
C=C(C)C12CC3CC(/C(=N/O)C(C1)/C3=N\O)[C@@]2(C)O (stereo partly drawn) | > 100 µM (inactive) | > 100 µM (inactive) | > 100 µM (inactive) | > 100 µM (inactive) | > 100 µM (inactive) | > 100 µM (inactive) | 93.8 µM (inactive) | > 100 µM (inactive) | > 100 µM (inactive) | > 100 µM (inactive) | > 100 µM (inactive) | > 100 µM (inactive) | > 100 µM (inactive) | > 100 µM (inactive) | > 100 µM (inactive) | > 100 µM (inactive) | – | > 100 µM (inactive) | –
CCOC(=O)C1=C(C)N(Cc2ccccc2)C2(O)C=CC(=O)C3C(=O)N(c4ccccc4)C(=O)C132 (stereo not drawn) | 3.66 µM (inactive) | 0.735 µM (active) | 7.52 µM (inactive) | 3.57 µM (inactive) | 1.03 µM (active) | 2.35 µM (inactive) | – | 2.04 µM (inactive) | 1.15 µM (inactive) | 1.98 µM (inactive) | 3.43 µM (inactive) | 2.28 µM (inactive) | 2.81 µM (inactive) | 1.71 µM (inactive) | 2.54 µM (inactive) | 1.81 µM (inactive) | 1.98 µM (inactive) | 3.44 µM (inactive) | 2.24 µM (inactive)
O=C(c1ccc(Cl)cc1)c1ccc(OCCSCCCCCCCCCCSCCOc2ccc(C(=O)c3ccc(Cl)cc3)cc2)cc1 | > 100 µM (inactive) | > 100 µM (inactive) | > 100 µM (inactive) | > 100 µM (inactive) | > 100 µM (inactive) | > 100 µM (inactive) | > 100 µM (inactive) | > 100 µM (inactive) | – | > 100 µM (inactive) | > 100 µM (inactive) | > 100 µM (inactive) | > 100 µM (inactive) | > 100 µM (inactive) | > 100 µM (inactive) | – | – | > 100 µM (inactive) | > 100 µM (inactive)
COc1cc(OC(C)=O)cc2c(OC(C)=O)ccc(OC(C)=O)c12 | > 100 µM (inactive) | 74.8 µM (inactive) | > 100 µM (inactive) | > 100 µM (inactive) | > 100 µM (inactive) | > 100 µM (inactive) | – | > 100 µM (inactive) | > 100 µM (inactive) | > 100 µM (inactive) | > 100 µM (inactive) | > 100 µM (inactive) | – | > 100 µM (inactive) | > 100 µM (inactive) | > 100 µM (inactive) | 73.6 µM (inactive) | > 100 µM (inactive) | 17.1 µM (inactive)
C=C1C(=O)OC2CCCCC3OC3C12 (stereo not drawn) | 12.3 µM (inactive) | 3.04 µM (inactive) | 20 µM (inactive) | 3.99 µM (inactive) | 5.55 µM (inactive) | 21.8 µM (inactive) | 20.4 µM (inactive) | 13.4 µM (inactive) | 2.99 µM (inactive) | 12 µM (inactive) | 18.2 µM (inactive) | 13.4 µM (inactive) | 10.7 µM (inactive) | 3.56 µM (inactive) | 13.8 µM (inactive) | 7.16 µM (inactive) | 14.2 µM (inactive) | 13.8 µM (inactive) | –
CCOC(=O)c1cccc(=O)c(C(=O)OCC)c1 | 36.1 µM (inactive) | 27.2 µM (inactive) | – | 47.8 µM (inactive) | 29.3 µM (inactive) | 33.3 µM (inactive) | 56.9 µM (inactive) | 57.8 µM (inactive) | 28.4 µM (inactive) | 47 µM (inactive) | > 100 µM (inactive) | 31.3 µM (inactive) | 66.1 µM (inactive) | 34 µM (inactive) | – | 81.3 µM (inactive) | 48.1 µM (inactive) | > 100 µM (inactive) | –
COC[C@@H](/N=C/c1ccc([N+](=O)[O-])cc1)C(C)C | 34.1 µM (inactive) | 75.9 µM (inactive) | > 100 µM (inactive) | > 10 µM (inactive) | 25.2 µM (inactive) | – | > 100 µM (inactive) | > 100 µM (inactive) | 26 µM (inactive) | > 100 µM (inactive) | > 100 µM (inactive) | – | > 100 µM (inactive) | > 100 µM (inactive) | > 100 µM (inactive) | 70.1 µM (inactive) | > 100 µM (inactive) | > 100 µM (inactive) | –
CCCCc1c2c(nc3c1CC/C(=C\c1ccc([N+](=O)[O-])cc1)C3=O)CCCC2 | 2.17 µM (inactive) | 1.46 µM (inactive) | 1.87 µM (inactive) | – | 1.7 µM (inactive) | 1.73 µM (inactive) | 8.65 µM (inactive) | 2.3 µM (inactive) | 1.8 µM (inactive) | – | – | 1.76 µM (inactive) | 2 µM (inactive) | 1.61 µM (inactive) | 1.98 µM (inactive) | 1.85 µM (inactive) | – | 1.66 µM (inactive) | –
CC(C)(C)c1cc(C#N)c2c(c1)C(=O)OC2(c1ccccc1)c1ccccc1C#N (stereo not drawn) | 45.4 µM (inactive) | > 100 µM (inactive) | > 100 µM (inactive) | – | – | > 100 µM (inactive) | 42.8 µM (inactive) | 87.7 µM (inactive) | > 100 µM (inactive) | > 100 µM (inactive) | > 100 µM (inactive) | 94.6 µM (inactive) | > 100 µM (inactive) | > 100 µM (inactive) | > 100 µM (inactive) | > 100 µM (inactive) | > 100 µM (inactive) | > 100 µM (inactive) | –
COc1cc(Oc2c(O)c(C)c(OC)c(C(C)=O)c2O)c(C(C)=O)c(O)c1C | – | > 100 µM (inactive) | 63 µM (inactive) | 35.2 µM (inactive) | – | 34.3 µM (inactive) | > 100 µM (inactive) | 40.6 µM (inactive) | 52.8 µM (inactive) | – | 98.2 µM (inactive) | 43 µM (inactive) | 42.8 µM (inactive) | 40.5 µM (inactive) | 66.4 µM (inactive) | 64.3 µM (inactive) | 45.2 µM (inactive) | 49.4 µM (inactive) | 44.6 µM (inactive)
CCCCCc1c(Cl)nc(Cl)nc1Cl | 2.18 µM (inactive) | 0.195 µM (active) | 15.7 µM (inactive) | 5.81 µM (inactive) | 3.03 µM (inactive) | 22.6 µM (inactive) | 0.589 µM (active) | 13.9 µM (inactive) | 3.82 µM (inactive) | – | 12.7 µM (inactive) | 14.4 µM (inactive) | 2.59 µM (inactive) | 15.3 µM (inactive) | 11.1 µM (inactive) | 1.56 µM (inactive) | 16.1 µM (inactive) | 12.1 µM (inactive) | 5.46 µM (inactive)
COc1cc(C(=O)C/C(CCC(=O)Nc2ccc(Cl)cc2C)=N/NC(=O)C(N)=O)ccc1O | > 100 µM (inactive) | > 100 µM (inactive) | > 100 µM (inactive) | > 100 µM (inactive) | > 100 µM (inactive) | > 100 µM (inactive) | – | > 100 µM (inactive) | > 100 µM (inactive) | > 100 µM (inactive) | > 100 µM (inactive) | > 100 µM (inactive) | > 100 µM (inactive) | > 100 µM (inactive) | > 100 µM (inactive) | > 100 µM (inactive) | > 100 µM (inactive) | > 100 µM (inactive) | > 100 µM (inactive)
CCOc1ccc2c(c1)[n+]([O-])c(-c1ccc([N+](=O)[O-])cc1)c(N)[n+]2[O-] | > 100 µM (inactive) | 49.7 µM (inactive) | > 100 µM (inactive) | > 100 µM (inactive) | – | > 100 µM (inactive) | 66.4 µM (inactive) | > 100 µM (inactive) | 62.2 µM (inactive) | > 100 µM (inactive) | > 100 µM (inactive) | > 100 µM (inactive) | > 100 µM (inactive) | – | > 100 µM (inactive) | > 100 µM (inactive) | > 100 µM (inactive) | – | > 100 µM (inactive)
CCOC(=O)C(C(=O)OCC)C(NC(=O)Nc1cc(C(F)(F)F)ccc1OC)(C(F)(F)F)C(F)(F)F | 24.2 µM (inactive) | 20.8 µM (inactive) | 39.9 µM (inactive) | 19.4 µM (inactive) | 18.8 µM (inactive) | 25.4 µM (inactive) | – | 39.5 µM (inactive) | 36.2 µM (inactive) | – | 45.8 µM (inactive) | 26.1 µM (inactive) | 24.5 µM (inactive) | 22.5 µM (inactive) | 36.4 µM (inactive) | 21.1 µM (inactive) | 23.2 µM (inactive) | 59 µM (inactive) | 25.5 µM (inactive)
COC(=O)CC1CCN(C#N)CC1CC[N+](=O)[O-] (stereo not drawn) | > 100 µM (inactive) | > 100 µM (inactive) | > 100 µM (inactive) | > 100 µM (inactive) | > 100 µM (inactive) | > 100 µM (inactive) | > 100 µM (inactive) | > 100 µM (inactive) | > 100 µM (inactive) | > 100 µM (inactive) | – | > 100 µM (inactive) | > 100 µM (inactive) | > 100 µM (inactive) | > 100 µM (inactive) | > 100 µM (inactive) | > 100 µM (inactive) | > 100 µM (inactive) | –
